Data: publication PMC10952572, “Improved PIEZO1 agonism through 4‐benzoic acid modification of Yoda1” (British Journal of Pharmacology, 2023)

How the values were obtained:
hPIEZO1 = target: T1, hPIEZO1 (Homo sapiens, UniProt Q92508); test: Intracellular Ca2+ measurement (Fura-2) in hPIEZO1-TREx cells; type: cell-based; conditions: for Peak ΔCa2+i (ΔF340/380), median fold difference compared to Yoda1: 10 μM compound, hPIEZO1-TREx cells, paired with 10 μM Yoda1; for Ability to evoke intracellular Ca2+ elevation: 10 μM, cells overexpressing hPIEZO1, compared with Yoda1
T1 construct: expressed in transfected cells
Description: HEK T‐REx™ 293 cells (Thermo Fisher Cat #R71007, RRID:CVCL_D585) that overexpress hPIEZO1 upon induction with tetracycline were generated as previously described (Rode et al., [2017]). PIEZO1‐GFP was used as a PCR template to clone hPIEZO1 coding sequence into pcDNA™4/TO between HindIII and EcoRI restriction sites. PIEZO1 was amplified as two fragments using the following primers: (HindIII‐PIEZO1‐Fw: […] and BamHI‐Int.PIEZO1‐Rv: […]) and (BamHI‐Int. PIEZO1‐Fw: […] and EcoRI‐PIEZO1‐Rv: […]). The two fragments were fused using BamHI restriction site, resulting in the full‐length PIEZO1 coding sequence with the c4182a silent mutation. HEK T‐REx™ 293 cells (Invitrogen) were transfected with pcDNA4/TO‐PIEZO1 using Lipofectamine 2000 (Thermo Fisher Scientific). Subsequently, cells were treated with 10 μg·ml^−1 blasticidin and 200 μg·ml^−1 zeocin (InvivoGen) to select stably transfected cells. Single‐cell clones were isolated and analysed individually. Expression was induced by treating the cells for 24 h with 10 ng·ml^−1 tetracycline and analysed by quantitative RT‐PCR and Western blot. These cells are referred to as hPIEZO1‐TREx.
HEK 293‐TREx cells and their stably transfected derivatives or transiently transfected HEK 293 or HeLa cells were seeded at a density of 7.5 × 10^4 cells per well into poly‐D‐lysine‐coated 96‐well plates. The plates were either commercially pre‐coated with poly‐D‐lysine (Greiner Bio‐One #655946) or (Greiner Bio‐One #655090) were coated in‐house with 35 μl of a 10 μg·ml^−1 poly‐D‐lysine (Bio‐Techne, Cultrex # 3439‐100‐01) in sterile deionised water per well for at least 24 h and rinsed three times with 100 μl per well sterile D‐PBS before addition of cells. HUVECs were seeded into tissue culture‐treated 96‐well plates (Greiner Bio‐One #655090) at a density of either 2.5 × 10^4 cells 24 h before experimentation or 1.25 × 10^4 cells 48 h before experimentation. Cells were incubated with 2 μM Fura‐2‐AM (Molecular Probes™) in the presence of 0.01% (wt./vol.) pluronic F127 (Sigma‐Aldrich #P2443) in standard bath solution (SBS) for 1 h at 37°C. Cells were washed with SBS for 30 min at room temperature. Alternatively, if inhibitors were being tested, these were added at this time, immediately following a wash in SBS. (−)‐Englerin A (Akbulut et al., [2015]) was used in SBS containing 0.01% pluronic acid as a dispersing agent to minimise aggregation of compound. Unless otherwise stated, the final concentration of DMSO was 0.2% (vol./vol). Working 2000× stock solutions of test compounds were freshly made in DMSO and diluted 1000‐fold in SBS during the 30 min SBS wash/inhibitor pre‐incubation period to obtain 2× solutions for injection. When testing the highest concentration of Yoda1, KC159 and KC289 (30 μM), the final DMSO concentration was 0.6% (vol./vol.). Measurements were made at room temperature on a 96‐well fluorescence plate reader (FlexStation 3, Molecular Devices, Sunnyvale, CA, USA) controlled by SoftMax Pro software v7.0.3. Recipient wells containing 80 μl SBS/0.2% (vol./vol.) DMSO vehicle or inhibitor compound received 80 μl 2× compound at an injection rate of 1 μl·s^−1, and the pipette introduced liquids from a height setting of 70 μl. No trituration was performed. For recordings using Fura‐2, the change in intracellular Ca was indicated as the ratio of Fura‐2 emission (510 nm) intensities at 340 and 380 nm excitation. Photomultipliers were set to medium sensitivity. SBS contained 130 mM NaCl, 5 mM KCl, 8 mM D‐glucose, 10 mM HEPES, 1.2 mM MgCl2 and 1.5 mM CaCl2, and the pH was adjusted to 7.4 with NaOH. The solution was filtered through a 0.2 μm bottle‐top filter prior to use and handled aseptically thereafter.
For intracellular Ca^2+ (Ca^2+i) measurements, technical intra‐experiment replicates were used to improve confidence in the data. Analysis of individual experiments was performed to obtain mean ± SEM values. […]

Stability in plasma = type: in vitro ADME; conditions: mouse plasma, 1 μM, over 2 h
Method: Pooled heparinised mouse plasma was warmed to 37°C for 10 min, mixed and cleared of aggregated protein by centrifugation. Aliquots of the clear supernatant were transferred into the assay plate. Following equilibration to 37°C, biotransformation was initiated by adding and mixing of 1 μM compound solution in a final incubation volume of 300 μl; 25 μl aliquots were removed at 0, 5, 15, 30, 60 and 120 min and quenched in 300 μl ice‐cold acetonitrile containing internal standard. After storing the samples at −20°C for a minimum of 4 h, the protein in the samples was precipitated by centrifugation at 4°C, and the supernatants were analysed by LC–MS/MS to quantify the % input test compound remaining.

T1 sequence (Q92508 whole entry): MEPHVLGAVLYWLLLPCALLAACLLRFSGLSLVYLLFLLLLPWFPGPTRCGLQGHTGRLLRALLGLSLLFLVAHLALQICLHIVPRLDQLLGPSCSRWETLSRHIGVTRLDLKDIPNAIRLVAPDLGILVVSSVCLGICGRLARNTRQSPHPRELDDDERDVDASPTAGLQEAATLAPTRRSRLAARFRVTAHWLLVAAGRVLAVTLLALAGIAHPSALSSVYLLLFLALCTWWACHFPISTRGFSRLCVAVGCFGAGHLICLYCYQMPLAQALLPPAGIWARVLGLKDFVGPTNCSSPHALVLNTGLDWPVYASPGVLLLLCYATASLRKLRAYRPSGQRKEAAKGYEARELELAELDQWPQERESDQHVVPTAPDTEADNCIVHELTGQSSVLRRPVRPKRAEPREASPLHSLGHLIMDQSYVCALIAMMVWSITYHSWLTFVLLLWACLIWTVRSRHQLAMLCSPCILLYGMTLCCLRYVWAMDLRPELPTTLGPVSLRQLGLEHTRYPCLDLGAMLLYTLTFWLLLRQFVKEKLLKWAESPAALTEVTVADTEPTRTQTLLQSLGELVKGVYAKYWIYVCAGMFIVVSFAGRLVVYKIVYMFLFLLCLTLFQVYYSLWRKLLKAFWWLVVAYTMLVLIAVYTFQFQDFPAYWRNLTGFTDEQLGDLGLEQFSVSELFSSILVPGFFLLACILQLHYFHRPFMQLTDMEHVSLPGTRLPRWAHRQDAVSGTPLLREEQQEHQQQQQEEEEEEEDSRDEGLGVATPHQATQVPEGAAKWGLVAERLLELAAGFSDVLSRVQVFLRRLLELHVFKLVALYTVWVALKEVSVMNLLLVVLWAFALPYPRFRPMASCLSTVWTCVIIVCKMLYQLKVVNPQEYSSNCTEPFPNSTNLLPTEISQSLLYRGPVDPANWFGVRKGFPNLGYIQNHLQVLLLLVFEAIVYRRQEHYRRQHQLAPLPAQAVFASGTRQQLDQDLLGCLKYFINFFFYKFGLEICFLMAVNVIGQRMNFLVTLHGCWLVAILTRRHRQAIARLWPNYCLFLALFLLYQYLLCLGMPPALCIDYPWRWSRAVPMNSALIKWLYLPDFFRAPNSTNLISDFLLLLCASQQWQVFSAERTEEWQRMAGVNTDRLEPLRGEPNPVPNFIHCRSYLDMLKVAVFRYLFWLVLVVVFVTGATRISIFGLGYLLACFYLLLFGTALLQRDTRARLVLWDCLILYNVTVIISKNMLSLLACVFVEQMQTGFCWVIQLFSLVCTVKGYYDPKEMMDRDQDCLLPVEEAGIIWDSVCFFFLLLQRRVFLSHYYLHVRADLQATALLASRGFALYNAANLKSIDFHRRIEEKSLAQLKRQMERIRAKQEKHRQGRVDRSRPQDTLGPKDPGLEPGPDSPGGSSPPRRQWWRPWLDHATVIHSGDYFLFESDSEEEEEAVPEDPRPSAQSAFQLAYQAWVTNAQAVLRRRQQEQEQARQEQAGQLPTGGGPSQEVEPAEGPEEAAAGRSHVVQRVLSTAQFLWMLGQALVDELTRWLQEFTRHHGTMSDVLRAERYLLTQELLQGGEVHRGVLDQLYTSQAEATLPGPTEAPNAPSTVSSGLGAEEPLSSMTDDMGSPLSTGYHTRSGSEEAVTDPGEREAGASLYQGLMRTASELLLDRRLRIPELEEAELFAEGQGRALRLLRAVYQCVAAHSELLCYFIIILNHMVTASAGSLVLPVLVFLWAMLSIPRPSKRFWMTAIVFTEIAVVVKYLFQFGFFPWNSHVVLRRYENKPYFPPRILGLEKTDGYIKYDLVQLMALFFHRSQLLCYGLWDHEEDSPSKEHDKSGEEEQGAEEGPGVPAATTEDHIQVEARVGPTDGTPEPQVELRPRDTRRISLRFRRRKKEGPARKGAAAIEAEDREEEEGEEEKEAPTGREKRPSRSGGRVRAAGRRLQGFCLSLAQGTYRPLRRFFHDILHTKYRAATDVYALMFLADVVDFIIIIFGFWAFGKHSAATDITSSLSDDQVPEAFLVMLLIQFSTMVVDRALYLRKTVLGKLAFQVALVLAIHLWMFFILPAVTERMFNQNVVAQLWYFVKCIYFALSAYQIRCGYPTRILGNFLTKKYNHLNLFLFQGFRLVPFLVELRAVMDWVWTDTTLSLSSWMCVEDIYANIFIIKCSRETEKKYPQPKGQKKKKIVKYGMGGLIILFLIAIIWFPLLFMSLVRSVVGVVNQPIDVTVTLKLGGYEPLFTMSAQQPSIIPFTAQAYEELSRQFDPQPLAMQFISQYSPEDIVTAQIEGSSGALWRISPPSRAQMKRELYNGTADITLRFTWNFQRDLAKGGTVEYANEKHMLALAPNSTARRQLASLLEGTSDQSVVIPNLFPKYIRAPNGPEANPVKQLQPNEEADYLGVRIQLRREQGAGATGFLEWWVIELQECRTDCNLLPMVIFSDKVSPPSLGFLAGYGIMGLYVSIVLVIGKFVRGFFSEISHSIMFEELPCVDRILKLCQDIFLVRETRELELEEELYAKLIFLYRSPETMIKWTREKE

Row | Structure (SMILES) | Peak ΔCa2+i (ΔF340/380), median fold difference compared to Yoda1 (hPIEZO1) | Ability to evoke intracellular Ca2+ elevation (hPIEZO1) | Plasma stability (Stability in plasma)
1 | O=C(O)c1ccccc1-c1nnc(SCc2c(Cl)cccc2Cl)s1 [KC157] | −24.4 fold | – | –
2 | O=C(O)c1ccc(-c2nnc(SCc3c(Cl)cccc3Cl)s2)cc1 [KC159] | +1.8 fold | robust responses that are larger than those of Yoda1 | good stability over 2 h
3 | O=C([O-])c1ccc(-c2nnc(SCc3c(Cl)cccc3Cl)s2)cc1.[K+] [KC289] | +2.8 fold | robust responses that are larger than those of Yoda1 | good stability over 2 h
4 | Clc1cccc(Cl)c1CSc1nnc(-c2cnccn2)s1 [Yoda1, 2‐[5‐[[(2,6‐dichlorophenyl)methyl]thio]‐1,3,4‐thiadiazol‐2‐yl]pyrazine] | – | – | good stability over 2 h
